From patent US20090170932A1, “DISINFECTANT COMPOSITIONS, METHODS AND SYSTEMS” (Tyco Healthcare Group LP, priority 2007, published 2009)
Several values for one entry are separate records, joined by “and”; a condition that tells them apart may be missing. Equal values may be shown once.

How the values were obtained:
[1] = tested on: Staphylococcus aureus (organism # 25923); experiment: pH experiments: MIC at adjusted pH, NCCLS micro-dilution; type: cell-based; conditions: S. aureus
Experimental: (§1) In order to determine MIC and MBC (minimum bactericidal concentration) a National Committee on Clinical Laboratory Standards (NCCLS) micro-dilution procedure was followed. […] In the current protocol 100 μL of MHB was mixed with 90 μL of formulation and 10 μL of log 8 organism or the highest achievable concentration. The concentration of the formulation was adjusted to obtain the required concentration in the final solution. The mixture was incubated at 37 degree C. for 16-24 hrs. After 16-24 hours the absorbance value was read at 600 nm. The obtained data was corrected by subtracting the appropriate blanks. Finally, the wells having an absorbance≧0.1 were marked + and <0.1 were marked −. The + symbol indicated growth while − symbol indicates no growth. […] Staphylococcus aureus (organism # 25923) was obtained from ATCC. […] N-acetyl cysteine (NAC) was used (Acros, Catalogue # 160280250, Lot # A0229576). A 4 wt % NAC solution in water was prepared at a pH of 4. A 4 wt % NAC solution in water was prepared at a pH of 6. […] These solutions were then serially diluted as necessary to obtain the required concentrations. […]

blood coagulation = conditions: patients; cited publications; cited from earlier work
S. aureus = experiment: Checkerboard Titration (FIC index), pH<4; type: cell-based; conditions: for FIC of the single component (FIC-NAC, FIC-VC): S. aureus, MIC in combination / MIC alone
Experimental: (§2) The method used was a NCCLS micro-dilution procedure. […] The following concentrations were tested (for S. aureus see FIG. 9 and for P. aeruginosa see FIG. 7 for combinations at a pH<4): [table] Fraction Inhibitory Concentration (FIC) is defined as the MIC of the compound in combination divided by the MIC of the compound alone. If the FIC index is ≦0.5, the combination is interpreted to be synergistic; <1 but >0.5-as partially synergistic; =1 as additive; >1 but <4 as indifferent; and ≧4 as antagonistic.

P. aeruginosa = experiment: Checkerboard Titration (FIC index); type: cell-based; conditions: for FIC of the single component (FIC-NAC, FIC-VC): P. aeruginosa, MIC in combination / MIC alone
Experimental: as §2

Osmolarity of solutions = type: physicochemical; conditions: 4 wt % (w/v) of each component in solution
Text: Formulation and production of disinfectant compositions of the present disclosure are generally straightforward. […] The disinfectant solution may then be sterilized using conventional means, such as filtration and/or ultrafiltration, and other means. […] The solutions are preferably formulated using USP materials.

[2] = tested on: blood coagulation (clotting); experiment: Prothrombin Time (PT) Assay, INR; type: biochemical; conditions: single agent, within the tested range
Experimental: Experiments were conducted to assess the anticoagulant capacities of NAC, Vitamin C and combinations of NAC and Vitamin C via a Prothrombin Time (PT) Assay. A PT assay (TM-4339-063) was conducted using a Coagulation Analyzer to obtain PT instead of manually recording the PT. […] INR (International Normalized Ratio) is a system established by the World Health Organization (WHO) and the International Committee on Thrombosis and Hemostasis for reporting the results of blood coagulation (clotting) tests. INR is calculated as: INR=([…] sample/PTnormal control)^ISI ISI (International Sensitivity Index) indicates the sensitivity of individual thromboplastin. […] All the PTs greater than 3× the […] 1 (normal control) were replaced with 31 seconds.

[3] = tested on: Candida Albicans (Organism # 10231); experiment: MIC test, NCCLS micro-dilution; type: cell-based; conditions: C. albicans; pH not adjusted
Experimental: (§3) The minimum concentration of a composition required to inhibit growth is known as the minimum inhibitory concentration (MIC). In order to determine MIC a National Committee on Clinical Laboratory Standards (NCCLS) micro-dilution procedure was followed. […] In the current protocol 100 μL of MHB was mixed with 90 μL of formulation and 10 μL of log 8 organism or the highest achievable concentration. The concentration of the formulation was adjusted to obtain the required concentration in the final solution. The mixture was incubated at 37 degree C. for 16-24 hrs. After 16-24 hours the absorbance value was read at 600 nm. The obtained data was corrected by subtracting the appropriate blanks. Finally, the wells having an absorbance≧0.1 were marked + and <0.1 were marked −. The + symbol indicated growth while − symbol indicates no growth. […] In cases where the positive growth controls corrected absorbance is lower than 0.5, an alternate rule is utilized which is “absorbance<than 20% of positive growth control is marked as − growth, while absorbance≧than 20% of positive growth control is marked as + growth”. Staphylococcus aureus (organism # 25923), Pseudomonas aeruginosa (Organism # 27853) and Candida Albicans (Organism # 10231) was obtained from ATCC. […] N-acetyl cysteine (NAC) was used (Acros, Catalogue # 160280250, Lot # A0229576). A 8 wt % NAC solution in water was prepared. […]

[4] = tested on: Staphylococcus aureus (organism # 25923); experiment: MIC test, NCCLS micro-dilution; type: cell-based; conditions: S. aureus; pH not adjusted (pH < 4); listed as VC
Experimental: as §3

[5] = tested on: Staphylococcus aureus (organism # 25923); experiment: pH experiments: MBC (minimum bactericidal concentration); type: cell-based; conditions: S. aureus
Experimental: as §1

[6] = cited from earlier work
[7] = in vivo; cited from earlier work
[8] = pH of 6, 2.0 wt % starting point
[9] = pH=6, 2.0% (w/v) starting point

Compound | MIC ([1]; pH of 4) | MIC [1, 8] | MIC ([1]; pH of 6, 2.0 wt % starting point, listed as VC) | MIC ([1]; pH=4) | MIC [1, 9] | Anti-coagulant effect (literature) (blood coagulation) | FIC of the single component (FIC-NAC, FIC-VC) (S. aureus) | FIC of the single component (FIC-NAC, FIC-VC) (P. aeruginosa) | osmolarity (Osmolarity of solutions) | Change of INR with increase in concentration [2] | MIC [3] | MIC [4] | MBC ([5]; pH of 4) | MBC ([5]; pH=4) | MIC-NAC / MIC-VC (MIC of the component in combination with the other) (S. aureus; S. aureus in MHB) | MIC-NAC / MIC-VC (MIC of the component in combination with the other) (P. aeruginosa; P. aeruginosa in MHB) | Solubility in chloroform and ether [6] | dose shown to be safe for administration to humans [7]
O=C1O[C@H]([C@@H](O)CO)C(O)=C1O [Vitamin C, L-ascorbic acid] | 0.5 wt % | > 2.0 wt % | >2 wt % | 0.5 % (w/v) | > 2.0 % (w/v) | has not been identified as an effective anticoagulant when compared with heparin | 0.4 | 0.35 | 223 mOsm/Kg | no significant increase in INR | > 8 wt % | 0.25 wt % | 1.0 wt % | 1.0 % (w/v) |  |  |  | 
CC(=O)N[C@@H](CS)C(=O)O [NAC, N-acetyl-L-cysteine] | 2.0 wt % and 2 wt % | >2 wt % |  | 2.0 % (w/v) | > 2.0 % (w/v) | some anti-coagulant effect | 0.4 | 0.35 | 237 mOsm/Kg | increase in INR |  |  | 2.0 wt % | 2.0 % (w/v) | 0.25 % (w/v) | 0.25 % (w/v) | practically insoluble | 1200 mg/day
